Earlier results on one molecule are cited in patent publication US5498598A, “Composition for nasal administration of desmopressin” (Ferring AB, priority 1995, dated 1996).

For this data set the following is noted: in vivo.

Regarding `NC(=O)CC[C@@H]1NC(=O)[C@H](Cc2ccccc2)NC(=O)[C@H](Cc2ccc(O)cc2)NC(=O)CCSSC[C@@H](C(=O)N2CCC[C@H]2C(=O)N[C@H](CCCN=C(N)N)C(=O)NCC(N)=O)NC(=O)[C@H](CC(N)=O)NC1=O` [desmopressin, 1-(3-mercaptopropionic acid)-8-D-arginine-vasopressin], the “absorption of a given amount in larger volume versus the same amount in smaller volume” value is “absorbed substantially less effectively”.
